According to patent EP3811945A1, “COMPOUNDS FOR TREATING AND PREVENTING GROWTH HORMONE RECEPTOR-DEPENDENT CONDITIONS” (UMC Utrecht Holding B.V., priority 2019, dated 2021):

Columns and labels:
MDA-MB-453 = experiment: Luminescent cell viability assay (ATP); type: cell-based; conditions: Homo sapiens, 46 hours, luciferase signal normalized to untreated cells = 1, read-out: relative viability MDA-MB-453
Description: (§1) Compounds were assessed for effects on viability of the breast cancer cell lines MDA-MB-231 and MDA-MB-453. The cells were incubated with the compounds for 46 hours at a concentration of 5 uM. DMSO was used as vehicle control. Cell viability was assessed after approximately 46 hours by using a luminescent cell viability assay. This assay generates a luminescent signal, proportional to the amount of ATP that is present as a readout of metabolically active cells. Relative viability was calculated by expressing the luciferase signal as a value normalized to untreated cells, meaning that the measured luciferase signal in untreated cells equals 1.

MDA-MB-231 = experiment: Luminescent cell viability assay (ATP); type: cell-based; conditions: Homo sapiens, 46 hours, luciferase signal normalized to untreated cells = 1, read-out: Relative viability MDA-MB-231
Description: as §1

[1] = test system: triple negative human breast cancer cells (MDA-MB-231); experiment: Proliferation test (DNA in vital cells, dose-response); type: cell-based; conditions: inhibition of proliferation of MDA-MB-231, tested after 24, 48, 72h in cell culture
Description: The EC50 refers to the inhibitory effect of the compounds on the proliferation of triple negative human breast cancer cells (MDA-MB-231), tested after 24, 48, 72h in cell culture.
We used the triple-negative human breast cancer line, MDA-MB-231 and quantified DNA in vital cells. Dose-response curves were made after 24, 48 & 72 h. […] The compound with the lowest EC50 (Compound #1) was tested in vivo.

GH-GHR-Jak2 signaling = experiment: GH-induced signaling in Hek293T cells expressing GHR (pY staining, concentration series)
Description: (§2) GH-induced GH-GHR-Jak2 signaling was probed by GHR pY staining in concentration series (0-20 µM, 1 h drug-treated, 10 min GH).

GM-CSF signaling = experiment: GH/GM-CSF flow cytometric test in whole human blood with IM-9 lymphoblasts; conditions: selectivity versus another Jak2-dependent cytokine
Description: This allowed simultaneous testing of GH- and GM-CSF activity. The GH/GM-CSF cytometric test added two important criteria to GH signaling: The test prioritized compounds that target the GH-driven signaling at the expense of another Jak2-dependent cytokine signaling (GM-CSF); equally important: it selected compounds that exert a rapid effect on the GH/IGF-axis as the response time for STAT5 phosphorylation was limited to 20-30 min.
as §2

GHR = GHR protein levels and phosphorylation in GHR-expressing HEK293T cells transfected with Jak2 (blot, Figure 4A); type: cell-based, rabbit; conditions: overnight treatment, compounds 10 µM; 90 ng GH/ml 10 min before lysis
Description: • Figure 1. […] Unphosphorylated fos-GHRct is rapidly degraded.

Compound	viability at 5 µM (MDA-MB-453) [%]	viability at 5 µM (MDA-MB-231) [%]	also measured
Cc1nc(N)nc(N)c1C#CC1(c2ccc(N3CCOCC3)cc2)CC1 [compound 28, 6-methyl-5-[2-[1-(4-morpholinophenyl)cyclopropyl]ethynyl]pyrimidine-2,4-diamine]	70.1	107	–
Cc1nc(N)nc(N)c1C=CC1(c2ccc(Cl)cc2)CC1 [compound 8, 5-[2-[1-(4-chlorophenyl)cyclopropyl]vinyl]-6-methylpyrimidine-2,4-diamine]	49.5	91.2	–
COc1ccc(C(C)(C)C=Cc2c(C)nc(N)nc2N)cc1 [compound 11, 2-amino-5-[3-(4-methoxyphenyl)-3-methyl-1-butenyl]-6-methyl-4-pyrimidinylamine]	48.7	87.5	–
Cc1nc(N)nc(N)c1C=CC1(c2ccc(OC(F)(F)F)cc2)CC1 [compound 24, 6-methyl-5-[2-[1-[4-(trifluoromethoxy)phenyl]cyclopropyl]vinyl]pyrimidine-2,4-diamine]	39.2	87.8	–
Cc1nc(N)nc(N)c1C=CC1(c2ccccc2C(F)(F)F)CC1 [compound 21, 6-methyl-5-[2-[1-[2-(trifluoromethyl)phenyl]cyclopropyl]vinyl]pyrimidine-2,4-diamine]	52.9	87.9	–
Cc1nc(N)nc(N)c1C=CC1(c2ccc(N3CCOCC3)cc2)CC1 [compound 25, 6-methyl-5-[2-[1-(4-morpholinophenyl)cyclopropyl]vinyl]pyrimidine-2,4-diamine]	40.5	91.6	–
Cc1nc(N)nc(N)c1CCC(C)c1ccc(F)cc1 (stereo not shown) [compound 3, 5-[3-(4-fluorophenyl)butyl]-6-methylpyrimidine-2,4-diamine]	82.7	87.7	EC50 ([1]; Homo sapiens): 200 nM
Cc1nc(N)nc(N)c1C=CC(C)(C)c1ccc(Cl)cc1 [compound 12, 2-amino-5-[3-(4-chlorophenyl)-3-methyl-1-butenyl]-6-methyl-4-pyrimidinylamine]	56.5	93.3	–
Cc1nc(N)nc(NCc2ccccn2)c1C=CC(C)(C)c1ccc(C(F)(F)F)cc1 [compound 5, 6-methyl-5-[3-methyl-3-[4-(trifluoromethyl)phenyl]but-1-en-1-yl]-N^4-[(pyridin-2-yl)methyl]pyrimidine-2,4-diamine]	20.7	74.1	EC50 ([1]; Homo sapiens): 800 nM
Cc1nc(N)nc(N)c1C=CC(C)c1ccc(C(F)(F)F)cc1 (stereo not shown) [compound 7, 2-amino-6-methyl-5-{3-[4-(trifluoromethyl)phenyl]-1-butenyl}-4-pyrimidinylamine]	54	94.2	–
Cc1nc(N)nc(N)c1C=CC(C)c1ccccc1Cl (stereo not shown) [compound 16, 2-amino-5-[3-(2-chlorophenyl)-1-butenyl]-6-methyl-4-pyrimidinylamine]	61.7	73.7	–
Cc1nc(N)nc(N)c1C=CC(C)(C)c1ccc(Cl)c(Cl)c1 [compound 13, 2-amino-5-[3-(3,4-dichlorophenyl)-3-methyl-1-butenyl]-6-methyl-4-pyrimidinylamine]	48.9	79.6	–
Cc1nc(N)nc(N)c1C#CC1(c2ccc(OC(F)(F)F)cc2)CC1 [compound 29, 6-methyl-5-[2-[1-[4-(trifluoromethoxy)phenyl]cyclopropyl]ethynyl]pyrimidine-2,4-diamine]	62.6	95.5	–
Cc1nc(N)nc(N)c1C=CC1(c2ccc(Cl)cc2)CCCC1 [compound 17, 2-amino-5-{2-[1-(4-chlorophenyl)cyclopentyl]vinyl}-6-methyl-4-pyrimidinylamine]	64	74.9	–
Cc1nc(N)nc(N)c1C=CC(C)(C)c1ccc(C(F)(F)F)cc1 [compound 9, 2-amino-6-methyl-5-{3-methyl-3-[4-(trifluoromethyl)phenyl]-1-butenyl}-4-pyrimidinylamine]	38.9	91.8	–
COc1cc(OC)cc(C(C)(C)C=Cc2c(C)nc(N)nc2N)c1 [compound 15, 5-[3-(3,5-dimethoxyphenyl)-3-methyl-1-butenyl]-6-methyl-2,4-pyrimidinediamine]	66.7	91.8	–
Cc1nc(N)nc(N)c1C=CC(C)c1cccc(Cl)c1 (stereo not shown) [compound 14, 2-amino-5-[3-(3-chlorophenyl)-1-butenyl]-6-methyl-4-pyrimidinylamine]	61.9	90.5	–
Cc1nc(N)nc(N)c1C#CC1(c2cccc(C(F)(F)F)c2)CC1 [compound 27, 6-methyl-5-[2-[1-[3-(trifluoromethyl)phenyl]cyclopropyl]ethynyl]pyrimidine-2,4-diamine]	73	105	–
Cc1nc(N)nc(N)c1C=CC1(c2cccc(C(F)(F)F)c2)CC1 [compound 26, 6-methyl-5-[2-[1-[3-(trifluoromethyl)phenyl]cyclopropyl]vinyl]pyrimidine-2,4-diamine]	63.2	103	–
5-{[1-(4-chlorophenyl)cyclopropyl]ethynyl}-6-methylpyrimidine-2,4-diamine [Compound #2]	–	–	phosphorylation of fos-GHRct (fos-pGHRct), of the active site of Jak2 (p1007/1008) and of STAT5 (pSTAT5) (GH-GHR-Jak2 signaling): inhibited; activity towards GM-CSF signaling (GM-CSF signaling): inactive; amounts of GHR at the plasma membrane (PM) and in the endoplasmic reticulum (ER) / GHR protein levels (GHR): decreased; EC50 [1]: 80 nM
CC(C)c1nc(N)nc(N)c1C=CC(C)(C)c1ccc(C(F)(F)F)cc1 [compound 19, 6-isopropyl-5-{3-methyl-3-[4-(trifluoromethyl)phenyl]-1-butenyl}-2,4-pyrimidinediamine]	80.6	89.8	–
Cc1nc(N)nc(N)c1C=CC(C)(C)c1cc(Cl)cc(Cl)c1 [compound 18, 2-amino-5-[3-(3,5-dichlorophenyl)-3-methyl-1-butenyl]-6-methyl-4-pyrimidinylamine]	78.9	89.7	–
COc1ccc(C2(C=Cc3c(C)nc(N)nc3N)CC2)cc1 [compound 22, 5-[2-[1-(4-methoxyphenyl)cyclopropyl]vinyl]-6-methylpyrimidine-2,4-diamine]	42.1	85.3	–
Cc1nc(N)nc(N)c1C=CC(C)(C)c1ccc(S(C)(=O)=O)cc1 [compound 20, 2-amino-6-methyl-5-{3-methyl-3-[4-(methylsulfonyl)phenyl]-1-butenyl}-4-pyrimidinylamine]	63.7	64.2	–
Cc1nc(NCc2ccccn2)nc(N)c1C=CC(C)(C)c1ccc(C(F)(F)F)cc1 [compound 6, 6-methyl-5-{3-methyl-3-[4-(trifluoromethyl)phenyl]but-1-en-1-yl}-N^2-[(pyridin-2-yl)methyl]pyrimidine-2,4-diamine]	–	–	EC50 ([1]; Homo sapiens): 2000 nM
Cc1nc(N)nc(N)c1C#CC1(c2ccc(C(F)(F)F)cc2)CC1 [compound 23, 6-methyl-5-[2-[1-[4-(trifluoromethyl)phenyl]cyclopropyl]ethynyl]pyrimidine-2,4-diamine]	71.7	107	–
CC(C)(C=Cc1c(N)nc(N)nc1CCC(F)(F)F)c1ccc(C(F)(F)F)cc1 [compound 4, 5-{3-methyl-3-[4-(trifluoromethyl)phenyl]but-1-en-1-yl}-6-(3,3,3-trifluoropropyl)pyrimidine-2,4-diamine]	78.9	115	EC50 ([1]; Homo sapiens): 400 nM
